Source: the kinase profiling compilation of Christmann-Franck et al. (2016)

Assays:
Test in all cases: KINOMEscan competition binding
Conditions in all cases: compound 10.0 µM
ACVR2A (human) = ACVR2A (human) (UniProt P27037)
ADCK4 (human) = ADCK4 (human) (UniProt Q96D53)
ALK (human) = ALK (human) (UniProt Q9UM73)
AXL (human) = AXL (human) (UniProt P30530)
BMPR1B (human) = BMPR1B (human) (UniProt O00238)
CAMK2A (human) = CAMK2A (human) (UniProt Q9UQM7)
CAMK2B (human) = CAMK2B (human) (UniProt Q13554)
CDC42BPG (human) = CDC42BPG (human) (UniProt Q6DT37)
Chain of CDC42BPG (human) (Q6DT37 whole entry, looked up): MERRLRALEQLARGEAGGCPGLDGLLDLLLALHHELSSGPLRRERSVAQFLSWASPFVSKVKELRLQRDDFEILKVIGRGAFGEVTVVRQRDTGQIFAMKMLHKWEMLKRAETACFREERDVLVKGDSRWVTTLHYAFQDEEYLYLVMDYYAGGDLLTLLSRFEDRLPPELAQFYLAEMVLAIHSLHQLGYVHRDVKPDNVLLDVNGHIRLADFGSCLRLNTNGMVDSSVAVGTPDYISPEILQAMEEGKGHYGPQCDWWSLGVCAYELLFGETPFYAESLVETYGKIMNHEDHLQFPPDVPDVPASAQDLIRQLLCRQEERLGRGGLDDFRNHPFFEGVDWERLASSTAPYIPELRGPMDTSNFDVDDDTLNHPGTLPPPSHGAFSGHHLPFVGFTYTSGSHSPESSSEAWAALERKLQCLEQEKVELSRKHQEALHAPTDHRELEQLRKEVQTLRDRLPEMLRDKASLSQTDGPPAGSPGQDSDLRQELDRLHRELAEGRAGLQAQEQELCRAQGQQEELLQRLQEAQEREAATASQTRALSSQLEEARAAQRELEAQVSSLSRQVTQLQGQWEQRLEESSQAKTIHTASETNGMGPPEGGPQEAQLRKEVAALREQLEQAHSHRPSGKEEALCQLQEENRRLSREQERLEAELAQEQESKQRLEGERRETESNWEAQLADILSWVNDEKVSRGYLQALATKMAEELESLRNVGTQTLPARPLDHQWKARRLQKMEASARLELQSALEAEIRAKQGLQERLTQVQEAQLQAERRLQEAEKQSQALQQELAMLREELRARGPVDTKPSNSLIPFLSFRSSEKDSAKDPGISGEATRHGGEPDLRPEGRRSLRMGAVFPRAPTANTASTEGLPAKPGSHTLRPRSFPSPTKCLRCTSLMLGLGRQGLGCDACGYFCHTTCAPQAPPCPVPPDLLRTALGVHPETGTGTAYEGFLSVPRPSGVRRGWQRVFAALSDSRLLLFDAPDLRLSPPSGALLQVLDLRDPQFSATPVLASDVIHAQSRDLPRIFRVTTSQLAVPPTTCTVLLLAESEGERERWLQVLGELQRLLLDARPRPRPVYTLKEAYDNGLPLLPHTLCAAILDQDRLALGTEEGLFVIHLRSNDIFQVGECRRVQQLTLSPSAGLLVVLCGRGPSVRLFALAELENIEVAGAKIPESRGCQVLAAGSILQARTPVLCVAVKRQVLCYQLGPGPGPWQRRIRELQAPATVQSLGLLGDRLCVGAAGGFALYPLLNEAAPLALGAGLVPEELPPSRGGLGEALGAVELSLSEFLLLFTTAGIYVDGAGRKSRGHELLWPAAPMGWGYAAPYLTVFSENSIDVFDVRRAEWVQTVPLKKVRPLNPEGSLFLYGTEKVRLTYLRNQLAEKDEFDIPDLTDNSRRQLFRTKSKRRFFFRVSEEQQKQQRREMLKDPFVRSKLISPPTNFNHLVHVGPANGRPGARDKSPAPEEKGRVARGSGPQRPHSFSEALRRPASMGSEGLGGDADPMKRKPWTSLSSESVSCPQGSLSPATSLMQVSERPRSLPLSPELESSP

CDK19 (human) = CDK19 (human) (UniProt Q9BWU1)
CDK7 (human) = CDK7 (human) (UniProt P50613)
CHEK2 (human) = CHEK2 (human) (UniProt O96017)
CSNK2A2 (human) = CSNK2A2 (human) (UniProt P19784)
DCLK1 (human) = DCLK1 (human) (UniProt O15075)
EIF2AK1 (human) = EIF2AK1 (human) (UniProt Q9BQI3)
Chain of EIF2AK1 (human) (Q9BQI3 whole entry, looked up): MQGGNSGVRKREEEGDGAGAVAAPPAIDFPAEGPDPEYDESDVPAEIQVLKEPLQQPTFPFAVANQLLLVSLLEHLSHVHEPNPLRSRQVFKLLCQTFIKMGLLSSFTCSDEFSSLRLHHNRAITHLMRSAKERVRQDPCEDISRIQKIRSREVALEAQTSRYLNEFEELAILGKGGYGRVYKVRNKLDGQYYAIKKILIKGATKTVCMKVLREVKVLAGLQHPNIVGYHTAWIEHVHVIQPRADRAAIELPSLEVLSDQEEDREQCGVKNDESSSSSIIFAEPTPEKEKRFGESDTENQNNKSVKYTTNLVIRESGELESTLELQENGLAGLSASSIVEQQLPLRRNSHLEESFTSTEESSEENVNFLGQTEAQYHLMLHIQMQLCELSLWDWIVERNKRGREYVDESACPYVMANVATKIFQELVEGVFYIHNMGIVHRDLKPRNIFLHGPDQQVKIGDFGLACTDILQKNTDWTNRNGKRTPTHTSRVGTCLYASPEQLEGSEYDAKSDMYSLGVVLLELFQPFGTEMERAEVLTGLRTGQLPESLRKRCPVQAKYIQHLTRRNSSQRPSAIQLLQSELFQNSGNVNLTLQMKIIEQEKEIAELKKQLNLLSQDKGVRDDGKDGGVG

EPHA1 (human) = EPHA1 (human) (UniProt P21709)
EPHA2 (human) = EPHA2 (human) (UniProt P29317)
Chain of EPHA2 (human) (P29317 whole entry, looked up): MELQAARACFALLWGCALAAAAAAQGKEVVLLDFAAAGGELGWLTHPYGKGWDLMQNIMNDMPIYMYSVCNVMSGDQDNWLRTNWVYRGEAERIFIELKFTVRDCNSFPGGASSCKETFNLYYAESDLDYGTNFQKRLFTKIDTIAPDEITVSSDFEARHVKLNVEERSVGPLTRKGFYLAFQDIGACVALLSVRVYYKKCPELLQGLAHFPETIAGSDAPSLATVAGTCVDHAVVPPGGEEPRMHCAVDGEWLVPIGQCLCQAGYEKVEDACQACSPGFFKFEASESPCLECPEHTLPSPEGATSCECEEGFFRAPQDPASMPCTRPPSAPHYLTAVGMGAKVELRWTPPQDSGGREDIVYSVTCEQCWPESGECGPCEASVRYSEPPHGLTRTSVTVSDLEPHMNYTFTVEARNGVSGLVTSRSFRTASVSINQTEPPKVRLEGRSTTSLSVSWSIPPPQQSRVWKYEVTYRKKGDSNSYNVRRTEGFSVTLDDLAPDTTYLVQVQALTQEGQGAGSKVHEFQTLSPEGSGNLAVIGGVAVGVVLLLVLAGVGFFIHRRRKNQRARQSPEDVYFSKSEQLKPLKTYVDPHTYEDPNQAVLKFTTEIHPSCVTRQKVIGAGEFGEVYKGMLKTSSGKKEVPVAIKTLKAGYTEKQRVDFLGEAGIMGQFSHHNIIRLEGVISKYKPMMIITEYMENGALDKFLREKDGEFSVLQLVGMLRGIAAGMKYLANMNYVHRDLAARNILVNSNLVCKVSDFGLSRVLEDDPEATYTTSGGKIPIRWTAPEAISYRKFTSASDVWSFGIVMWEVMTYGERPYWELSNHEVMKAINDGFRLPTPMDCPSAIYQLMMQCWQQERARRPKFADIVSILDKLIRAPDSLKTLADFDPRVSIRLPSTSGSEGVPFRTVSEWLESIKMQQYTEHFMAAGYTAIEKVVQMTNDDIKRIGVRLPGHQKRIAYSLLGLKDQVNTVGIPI

EPHA5 (human) = EPHA5 (human) (UniProt P54756)
HIPK3 (human) = HIPK3 (human) (UniProt Q9H422)
KDR (human) = KDR (human) (UniProt P35968)
[1] = system: KIT (human), P10721 [A829P]
MAP2K6 (human) = MAP2K6 (human) (UniProt P52564)
MAP4K5 (human) = MAP4K5 (human) (UniProt Q9Y4K4)
MAPK11 (human) = MAPK11 (human) (UniProt Q15759)
MAPK4 (human) = MAPK4 (human) (UniProt P31152)
MAPK8 (human) = MAPK8 (human) (UniProt P45983)
PIM1 (human) = PIM1 (human) (UniProt P11309)
PRKACA (human) = PRKACA (human) (UniProt P17612)
PTK2B (human) = PTK2B (human) (UniProt Q14289)
RAF1 (human) = RAF1 (human) (UniProt P04049)
Chain of RAF1 (human) (P04049 whole entry, looked up): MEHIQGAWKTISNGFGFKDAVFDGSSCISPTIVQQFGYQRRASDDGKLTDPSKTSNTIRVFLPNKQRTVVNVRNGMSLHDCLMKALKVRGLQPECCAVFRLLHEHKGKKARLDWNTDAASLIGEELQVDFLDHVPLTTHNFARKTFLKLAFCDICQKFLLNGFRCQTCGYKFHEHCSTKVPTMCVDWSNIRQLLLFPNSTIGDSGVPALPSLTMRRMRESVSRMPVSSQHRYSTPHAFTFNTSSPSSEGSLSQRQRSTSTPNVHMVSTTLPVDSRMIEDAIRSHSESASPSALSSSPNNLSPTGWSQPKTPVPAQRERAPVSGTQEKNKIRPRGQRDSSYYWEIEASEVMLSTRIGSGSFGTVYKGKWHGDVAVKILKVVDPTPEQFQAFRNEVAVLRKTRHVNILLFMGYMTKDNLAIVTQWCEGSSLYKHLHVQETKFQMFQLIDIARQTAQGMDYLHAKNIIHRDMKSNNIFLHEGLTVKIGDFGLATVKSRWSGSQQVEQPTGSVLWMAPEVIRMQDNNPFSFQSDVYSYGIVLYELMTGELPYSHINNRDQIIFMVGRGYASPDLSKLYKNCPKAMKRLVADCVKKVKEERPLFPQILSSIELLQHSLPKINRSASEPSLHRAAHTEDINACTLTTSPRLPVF

ROCK1 (human) = ROCK1 (human) (UniProt Q13464)
RPS6KA2 KD1 (human) = RPS6KA2 KD1 (human) (UniProt Q15349)
SRMS (human) = SRMS (human) (UniProt Q9H3Y6)
SRPK2 (human) = SRPK2 (human) (UniProt P78362)
STK3 (human) = STK3 (human) (UniProt Q13188)
Chain of STK3 (human) (Q13188 whole entry, looked up): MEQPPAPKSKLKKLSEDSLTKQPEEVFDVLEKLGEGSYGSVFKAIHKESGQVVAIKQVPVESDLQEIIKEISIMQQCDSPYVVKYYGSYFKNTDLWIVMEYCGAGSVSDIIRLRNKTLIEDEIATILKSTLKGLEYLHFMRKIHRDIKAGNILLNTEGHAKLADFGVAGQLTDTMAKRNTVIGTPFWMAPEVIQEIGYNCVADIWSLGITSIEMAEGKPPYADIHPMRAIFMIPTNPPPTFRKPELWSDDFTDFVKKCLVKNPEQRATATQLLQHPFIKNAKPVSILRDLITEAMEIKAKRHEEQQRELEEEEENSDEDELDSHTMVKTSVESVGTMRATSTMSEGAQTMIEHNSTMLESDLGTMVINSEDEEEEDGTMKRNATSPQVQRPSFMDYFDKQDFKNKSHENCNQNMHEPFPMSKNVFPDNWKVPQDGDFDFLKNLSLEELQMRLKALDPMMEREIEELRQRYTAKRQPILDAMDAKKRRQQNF

SYK (human) = SYK (human) (UniProt P43405)
TLK1 (human) = TLK1 (human) (UniProt Q9UKI8)
ULK1 (human) = ULK1 (human) (UniProt O75385)
VRK2 (human) = VRK2 (human) (UniProt Q86Y07)
Chain of VRK2 (human) (Q86Y07 whole entry, looked up): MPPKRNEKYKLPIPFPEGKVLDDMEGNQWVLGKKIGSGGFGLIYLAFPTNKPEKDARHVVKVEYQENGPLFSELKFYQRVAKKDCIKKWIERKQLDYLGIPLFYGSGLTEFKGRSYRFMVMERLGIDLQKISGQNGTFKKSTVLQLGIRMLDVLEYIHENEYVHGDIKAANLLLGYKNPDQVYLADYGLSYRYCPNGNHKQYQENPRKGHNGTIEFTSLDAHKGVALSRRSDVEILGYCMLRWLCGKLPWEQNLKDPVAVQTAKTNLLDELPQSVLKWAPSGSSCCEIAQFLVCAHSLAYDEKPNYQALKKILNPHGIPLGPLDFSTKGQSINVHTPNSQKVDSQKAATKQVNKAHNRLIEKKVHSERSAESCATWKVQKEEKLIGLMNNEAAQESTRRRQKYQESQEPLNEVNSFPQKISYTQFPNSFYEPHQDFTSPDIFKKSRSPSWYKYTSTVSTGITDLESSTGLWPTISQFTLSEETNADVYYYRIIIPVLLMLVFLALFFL

WEE1 (human) = WEE1 (human) (UniProt P30291)
YES1 (human) = YES1 (human) (UniProt P07947)

SMILES | kinase still bound, per cent of control (ACVR2A (human)) | kinase still bound, per cent of control (ADCK4 (human)) | kinase still bound, per cent of control (ALK (human)) | kinase still bound, per cent of control (AXL (human)) | kinase still bound, per cent of control (BMPR1B (human)) | kinase still bound, per cent of control (CAMK2A (human)) | kinase still bound, per cent of control (CAMK2B (human)) | kinase still bound, per cent of control (CDC42BPG (human)) | kinase still bound, per cent of control (CDK19 (human)) | kinase still bound, per cent of control (CDK7 (human)) | kinase still bound, per cent of control (CHEK2 (human)) | kinase still bound, per cent of control (CSNK2A2 (human)) | kinase still bound, per cent of control (DCLK1 (human)) | kinase still bound, per cent of control (EIF2AK1 (human)) | kinase still bound, per cent of control (EPHA1 (human)) | kinase still bound, per cent of control (EPHA2 (human)) | kinase still bound, per cent of control (EPHA5 (human)) | kinase still bound, per cent of control (HIPK3 (human)) | kinase still bound, per cent of control (KDR (human)) | kinase still bound, per cent of control [1] | also measured
N#C/C(=C1/Nc2ccccc2S1)c1ccnc(NCCc2cccnc2)n1 | 86% | 45% | 100% | 100% | 18% | 46% | 49% | 89% | 100% | 16% | 94% | 1% | 78% | 100% | 100% | 80% | 99% | 0.25% | 100% | 73% | kinase still bound, per cent of control (MAP2K6 (human)): 64%; kinase still bound, per cent of control (MAP4K5 (human)): 94%; kinase still bound, per cent of control (MAPK11 (human)): 85%; kinase still bound, per cent of control (MAPK4 (human)): 96%; kinase still bound, per cent of control (MAPK8 (human)): 0%; kinase still bound, per cent of control (PIM1 (human)): 4.4%; kinase still bound, per cent of control (PRKACA (human)): 100%; kinase still bound, per cent of control (PTK2B (human)): 89%; kinase still bound, per cent of control (RAF1 (human)): 100%; kinase still bound, per cent of control (ROCK1 (human)): 37%; kinase still bound, per cent of control (RPS6KA2 KD1 (human)): 100%; kinase still bound, per cent of control (SRMS (human)): 2.4%; kinase still bound, per cent of control (SRPK2 (human)): 86%; kinase still bound, per cent of control (STK3 (human)): 59%; kinase still bound, per cent of control (SYK (human)): 100%; kinase still bound, per cent of control (TLK1 (human)): 57%; kinase still bound, per cent of control (ULK1 (human)): 36%; kinase still bound, per cent of control (VRK2 (human)): 100%; kinase still bound, per cent of control (WEE1 (human)): 100%; kinase still bound, per cent of control (YES1 (human)): 81%
N#Cc1cc(-c2ccnc(Nc3ccc(-n4cnc(-c5cccnc5)n4)cc3)n2)cc(N2CCOCC2)c1 | 16% | 0.25% | 100% | 28% | 28% | 16% | 37% | 63% | 88% | 1.2% | 100% | 11% | 100% | 100% | 42% | 56% | 91% | 5.5% | 75% | 51% | kinase still bound, per cent of control (MAP2K6 (human)): 41%; kinase still bound, per cent of control (MAP4K5 (human)): 27%; kinase still bound, per cent of control (MAPK11 (human)): 79%; kinase still bound, per cent of control (MAPK4 (human)): 5%; kinase still bound, per cent of control (MAPK8 (human)): 0.05%; kinase still bound, per cent of control (PIM1 (human)): 78%; kinase still bound, per cent of control (PRKACA (human)): 89%; kinase still bound, per cent of control (PTK2B (human)): 20%; kinase still bound, per cent of control (RAF1 (human)): 91%; kinase still bound, per cent of control (ROCK1 (human)): 52%; kinase still bound, per cent of control (RPS6KA2 KD1 (human)): 73%; kinase still bound, per cent of control (SRMS (human)): 62%; kinase still bound, per cent of control (SRPK2 (human)): 34%; kinase still bound, per cent of control (STK3 (human)): 100%; kinase still bound, per cent of control (SYK (human)): 25%; kinase still bound, per cent of control (TLK1 (human)): 39%; kinase still bound, per cent of control (ULK1 (human)): 37%; kinase still bound, per cent of control (VRK2 (human)): 100%; kinase still bound, per cent of control (WEE1 (human)): 82%; kinase still bound, per cent of control (YES1 (human)): 79%
